Key:
late watergrass [1] = test: Test Example 1: herbicidal activity, application before weed generation under submerged conditions (Table 16, symbol A); format: in vivo, late watergrass (Echinochloa oryzicola)
Outline: (§1)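 Emulsion formulation, water-diluted to set dose, was put onto the flooded surface (4 cm depth, alluvial soil) the same day weeds were sown and 2.5-leaf rice transplanted. After 3 weeks at 25-30 °C under glass, each species was rated 0 (≤5% kill) to 5 (≥90% kill).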

Japanese bulrush = test: Test Example 1: herbicidal activity, application before weed generation under submerged conditions (Table 16, symbol B); format: in vivo, Japanese bulrush (Schoenoplectus juncoides)
Outline: as §1

late watergrass [2] = test: Test Example 2: herbicidal activity, application during weed generation under submerged conditions (Table 17, symbol A); format: in vivo, late watergrass (Echinochloa oryzicola); conditions: application during weed generation, submerged conditions
Outline: (§2)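 In this pot test, flooded alluvial soil (water depth 4 cm) holds all three species sown as a mixture. Once seedlings have one to two leaves, the compound's emulsion, thinned with water to the intended dose, is poured on the water; grading follows after three weeks on the earlier criteria.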

oval-leafed pondweed = test: Test Example 2: herbicidal activity, application during weed generation under submerged conditions (Table 17, symbol C); format: in vivo, oval-leafed pondweed (Monochoria vaginalis); conditions: application during weed generation, submerged conditions
Outline: as §2

barnyard grass [3] = test: Test Example 3: herbicidal effect by foliage application, Wagner pot (Table 18, symbol H); format: in vivo, barnyard grass (Echinochloa crus-galli)
Outline: (§3)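 Plants were sown in alluvial soil held under 0.1–0.5 cm standing water and grown 14 days in a greenhouse at 25–30 °C. An emulsifiable formulation, water-diluted to the set dose, was then sprayed onto the foliage, and effects were scored three weeks later using previously defined criteria.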

Chinese sprangletop = test: Test Example 3: herbicidal effect by foliage application, Wagner pot (Table 18, symbol D); format: in vivo, chinese sprangletop (Leptochloa chinensis)
Outline: as §3

rice flat sedge = test: Test Example 3: herbicidal effect by foliage application, Wagner pot (Table 18, symbol E); format: in vivo, rice flat sedge (Cyperus iria)
Outline: as §3

Italian ryegrass = test: Test Example 4: herbicidal effect by soil treatment (Table 19, symbol K); format: in vivo, Italian ryegrass (Lolium multiflorum)
Outline: (§4)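 Applied as a water-diluted emulsion, the compound was sprayed onto soil covering newly sown seeds. Evaluation came three weeks after application, in a greenhouse held at 25° C. to 30° C.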

windgrass = test: Test Example 4: herbicidal effect by soil treatment (Table 19, symbol L); format: in vivo, windgrass (Apera spica-venti)
Outline: as §4

redroot pigweed = test: Test Example 4: herbicidal effect by soil treatment (Table 19, symbol N); format: in vivo, redroot pigweed (Amaranthus retroflexus)
Outline: as §4

false cleavers = test: Test Example 4: herbicidal effect by soil treatment (Table 19, symbol Q); format: in vivo, false cleavers (Galium spurium)
Outline: as §4

southern crabgrass = test: Test Example 5: herbicidal effect by foliage application, plastic box (Table 20, symbol F); format: in vivo, southern crabgrass (Digitaria ciliaris); conditions: foliage application; for effect on southern crabgrass (F): 3 weeks after application
Outline: (§5)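 Sow seeds spot-wise in sterilized diluvial soil; cover with ~1.5 cm soil. Grow 14 days in greenhouse, 25° C. to 30° C. Spray foliage with emulsion diluted to predetermined amount. Rate effect after 3 weeks.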

green foxtail = test: Test Example 5: herbicidal effect by foliage application, plastic box (Table 20, symbol G); format: in vivo, green foxtail (Setaria viridis); conditions: foliage application; for effect on green foxtail (G): 3 weeks after application
Outline: as §5

barnyard grass [4] = test: Test Example 5: herbicidal effect by foliage application, plastic box (Table 20, symbol H); format: in vivo, barnyard grass (Echinochloa crus-galli); conditions: foliage application; for effect on barnyard grass (H): 3 weeks after application
Outline: as §5

wild oat = test: Test Example 5: herbicidal effect by foliage application, plastic box (Table 20, symbol I); format: in vivo, wild oat (Avena fatua); conditions: foliage application; for effect on wild oat (I): 3 weeks after application
Outline: as §5

blackgrass = test: Test Example 5: herbicidal effect by foliage application, plastic box (Table 20, symbol J); format: in vivo, blackgrass (Alopecurus myosuroides); conditions: foliage application; for effect on blackgrass (J): 3 weeks after application
Outline: as §5

persian speedwell = test: Test Example 5: herbicidal effect by foliage application, plastic box (Table 20, symbol R); format: in vivo, Persian speedwell (Veronica persica); conditions: foliage application; for effect on persian speedwell (R): 3 weeks after application
Outline: as §5

[5] = AAH 320 g/ha, three weeks after application

| Compound | Herbicidal effect on A: late watergrass (grade 0-5) (late watergrass [1]; 320 g/ha applied herbicide) | Herbicidal effect on B: Japanese bulrush (grade 0-5) (Japanese bulrush; 320 g/ha applied herbicide) | herbicidal effect rating, A: late watergrass (late watergrass [2]; AAH 320 g/ha) | herbicidal effect rating, C: oval-leafed pondweed (oval-leafed pondweed; AAH 320 g/ha) | herbicidal effect on H (barnyard grass), rating 0-5 (barnyard grass [3]; 320 g/ha) | herbicidal effect on D (Chinese sprangletop), rating 0-5 (Chinese sprangletop; 320 g/ha) | herbicidal effect on E (rice flat sedge), rating 0-5 (rice flat sedge; 320 g/ha) | K: Italian ryegrass, herbicidal effect rating (Italian ryegrass; AAH 320 g/ha) | L: windgrass, herbicidal effect rating (windgrass; AAH 320 g/ha) | N: redroot pigweed, herbicidal effect rating (redroot pigweed; AAH 320 g/ha) | Q: false cleavers, herbicidal effect rating (false cleavers; AAH 320 g/ha) | effect on southern crabgrass (F) (southern crabgrass; 320 g/ha) | effect on green foxtail (G) (green foxtail; 320 g/ha) | effect on barnyard grass (H) (barnyard grass [4]; 320 g/ha) | effect on wild oat (I) (wild oat; 320 g/ha) | effect on blackgrass (J) (blackgrass; 320 g/ha) | effect on persian speedwell (R) (persian speedwell; 320 g/ha) | also measured |
| --- | --- | --- | --- | --- | --- | --- | --- | --- | --- | --- | --- | --- | --- | --- | --- | --- | --- | --- |
| COCc1ccc(-c2sc3ccccc3c2-c2c(O)c(C)nn(C)c2=O)cc1 [1-131] | 2 (Herbicidal rate of 20% or more and less than 40%) | 1 (Herbicidal rate of 5% or more and less than 20%) | 0 (Herbicidal rate of 5% or less (almost no effect)) | 3 (Herbicidal rate of 40% or more and less than 70%) | 5 (Herbicidal rate of 90% or more (almost completely withered)) | 4 (Herbicidal rate of 70% or more and less than 90%) | 5 (Herbicidal rate of 90% or more (almost completely withered)) | 5 (Herbicidal rate of 90% or more (almost completely withered)) | 2 (Herbicidal rate of 20% or more and less than 40%) | 5 (Herbicidal rate of 90% or more (almost completely withered)) | 0 (Herbicidal rate of 5% or less (almost no effect)) | – | – | – | – | – | – | F: southern crabgrass, herbicidal effect (southern crabgrass; [5]): 5 (Herbicidal rate of 90% or more (almost completely withered)); G: green foxtail, herbicidal effect (green foxtail; [5]): 5 (Herbicidal rate of 90% or more (almost completely withered)); H: barnyard grass, herbicidal effect (barnyard grass [4]; [5]): 5 (Herbicidal rate of 90% or more (almost completely withered)); I: wild oat, herbicidal effect (wild oat; [5]): 4 (Herbicidal rate of 70% or more and less than 90%); J: blackgrass, herbicidal effect (blackgrass; [5]): 4 (Herbicidal rate of 70% or more and less than 90%); R: persian speedwell, herbicidal effect (persian speedwell; [5]): 5 (Herbicidal rate of 90% or more (almost completely withered)) |
| Cc1nn(C)c(=O)c(-c2c(-c3ccc(OCCBr)cc3)sc3ccccc23)c1O [1-204] | 3 (Herbicidal rate of 40% or more and less than 70%) | 3 (Herbicidal rate of 40% or more and less than 70%) | 0 (Herbicidal rate of 5% or less (almost no effect)) | 2 (Herbicidal rate of 20% or more and less than 40%) | 4 (Herbicidal rate of 70% or more and less than 90%) | 2 (Herbicidal rate of 20% or more and less than 40%) | 5 (Herbicidal rate of 90% or more (almost completely withered)) | 0 (Herbicidal rate of 5% or less (almost no effect)) | 0 (Herbicidal rate of 5% or less (almost no effect)) | 3 (Herbicidal rate of 40% or more and less than 70%) | 0 (Herbicidal rate of 5% or less (almost no effect)) | 4 (Herbicidal rate of 70% or more and less than 90%) | 4 (Herbicidal rate of 70% or more and less than 90%) | 3 (Herbicidal rate of 40% or more and less than 70%) | 0 (Herbicidal rate of 5% or less (almost no effect)) | 0 (Herbicidal rate of 5% or less (almost no effect)) | 5 (Herbicidal rate of 90% or more (almost completely withered)) | – |
| C=C(C)COc1ccc(-c2sc3ccccc3c2-c2c(O)c(C)nn(C)c2=O)cc1 [1-208] | 5 (Herbicidal rate of 90% or more (almost completely withered)) | 5 (Herbicidal rate of 90% or more (almost completely withered)) | 5 (Herbicidal rate of 90% or more (almost completely withered)) | 3 (Herbicidal rate of 40% or more and less than 70%) | 5 (Herbicidal rate of 90% or more (almost completely withered)) | 5 (Herbicidal rate of 90% or more (almost completely withered)) | 4 (Herbicidal rate of 70% or more and less than 90%) | 4 (Herbicidal rate of 70% or more and less than 90%) | 0 (Herbicidal rate of 5% or less (almost no effect)) | 0 (Herbicidal rate of 5% or less (almost no effect)) | 0 (Herbicidal rate of 5% or less (almost no effect)) | 5 (Herbicidal rate of 90% or more (almost completely withered)) | 5 (Herbicidal rate of 90% or more (almost completely withered)) | 5 (Herbicidal rate of 90% or more (almost completely withered)) | 4 (Herbicidal rate of 70% or more and less than 90%) | 4 (Herbicidal rate of 70% or more and less than 90%) | 5 (Herbicidal rate of 90% or more (almost completely withered)) | – |
| Cc1nn(C)c(=O)c(-c2c(-c3ccc(OCCC4OCCO4)cc3)sc3ccccc23)c1O [1-223] | – | – | – | – | – | – | – | – | – | – | – | – | – | – | – | – | – | Herbicidal effect on A: late watergrass (grade 0-5) (late watergrass [1]; 246 g/ha applied herbicide): 5 (Herbicidal rate of 90% or more (almost completely withered)); Herbicidal effect on B: Japanese bulrush (grade 0-5) (Japanese bulrush; 246 g/ha applied herbicide): 4 (Herbicidal rate of 70% or more and less than 90%); herbicidal effect rating, A: late watergrass (late watergrass [2]; AAH 246 g/ha): 3 (Herbicidal rate of 40% or more and less than 70%); herbicidal effect rating, C: oval-leafed pondweed (oval-leafed pondweed; AAH 246 g/ha): 3 (Herbicidal rate of 40% or more and less than 70%); herbicidal effect on H (barnyard grass), rating 0-5 (barnyard grass [3]; 246 g/ha): 5 (Herbicidal rate of 90% or more (almost completely withered)); herbicidal effect on D (Chinese sprangletop), rating 0-5 (Chinese sprangletop; 246 g/ha): 5 (Herbicidal rate of 90% or more (almost completely withered)); herbicidal effect on E (rice flat sedge), rating 0-5 (rice flat sedge; 246 g/ha): 4 (Herbicidal rate of 70% or more and less than 90%); K: Italian ryegrass, herbicidal effect rating (Italian ryegrass; AAH 246 g/ha): 0 (Herbicidal rate of 5% or less (almost no effect)); L: windgrass, herbicidal effect rating (windgrass; AAH 246 g/ha): 0 (Herbicidal rate of 5% or less (almost no effect)); N: redroot pigweed, herbicidal effect rating (redroot pigweed; AAH 246 g/ha): 4 (Herbicidal rate of 70% or more and less than 90%); Q: false cleavers, herbicidal effect rating (false cleavers; AAH 246 g/ha): 0 (Herbicidal rate of 5% or less (almost no effect)); effect on southern crabgrass (F) (southern crabgrass; 246 g/ha): 4 (Herbicidal rate of 70% or more and less than 90%); effect on green foxtail (G) (green foxtail; 246 g/ha): 5 (Herbicidal rate of 90% or more (almost completely withered)); effect on barnyard grass (H) (barnyard grass [4]; 246 g/ha): 5 (Herbicidal rate of 90% or more (almost completely withered)); effect on wild oat (I) (wild oat; 246 g/ha): 3 (Herbicidal rate of 40% or more and less than 70%); effect on blackgrass (J) (blackgrass; 246 g/ha): 2 (Herbicidal rate of 20% or more and less than 40%); effect on persian speedwell (R) (persian speedwell; 246 g/ha): 5 (Herbicidal rate of 90% or more (almost completely withered)) |

— US20230085307A1, “PYRIDAZINONE COMPOUND AND HERBICIDE” (NISSAN CHEMICAL CORPORATION, priority 2019, published 2023)
